Data: patent US20120142584A1, “NOVEL TRANSPORTER CONSTRUCTS AND TRANSPORTER CARGO CONJUGATE MOLECULES” (priority 2008, published 2012)

Assay: digestion of TAT derived transporter constructs in 10% and 50% human serum at 37° C.
Conditions: 10% and 50% human serum at 37° C. until complete degradation
Protocol: The table shown in FIG. 2 illustrates the amino acid sequences of these TAT derived transporter constructs with respect to their molecular weight (Mw) and pl-values (see FIG. 2). • The digestion was carried out in 10% and 50% human serum at 37° C. until complete degradation of these TAT derived transporters construct.

SMILES: N=C(N)NCCC[C@H](NC(=O)[C@H](CCCNC(=N)N)NC(=O)[C@H](CCCNC(=N)N)NC(=O)[C@H](CCC(N)=O)NC(=O)[C@H](CCCNC(=N)N)NC(=O)[C@H](CCCNC(=N)N)NC(=O)[C@H](CCCCN)NC(=O)[C@H](CCCCN)NC(=O)[C@@H](N)CCCNC(=N)N)C(=O)O [L-TAT]
- degradation in human serum: degraded too early
